Tests used:
[1] = prior human studies; cited from earlier work
[2] = test system: ADHD subjects with CNV in an mGluR network gene; assay: Open-label Phase Ib clinical trial of NFC-1 in adolescent ADHD subjects with a genetic alteration in an mGluR network gene; assay type: in vivo, human
Protocol: An open-label Phase Ib clinical trial was conducted to investigate the safety, pharmacokinetics and efficacy of NFC-1 (fasoracetam monohydrate) in adolescent subjects between the ages of 12 and 17 previously diagnosed with ADHD who also had at least one genetic alteration in an mGluR network gene.
The study included 30 ADHD subjects who were between ages 12 and 17, of any ancestry or race, of weight within the 5th to 95th percentile for their age, and otherwise judged to be in good medical health. […] Seventeen of the 30 subjects have a CNV in a tier 1 mGluR network gene, while 7 subjects have a CNV in a tier 2 gene and 6 in a tier 3 gene.
Exclusion criteria comprised subjects suffering from a clinically significant illness, either mental or physical, that, in the investigator's opinion, might confound the results of the study or that might prevent them from completing the study, subjects that are pregnant or nursing, subjects that test positive for illicit drugs of that have a history of drug abuse, subjects that consume alcoholic beverages, or subjects for which the investigator is otherwise concerned regarding their compliance or suitability.
NFC-1 capsules of either 50 mg or 200 mg comprising fasoracetam monohydrate as active ingredient and placebo capsules comprising microcellulose were used for the study. The design of the trial was a phone screening (1 day), enrollment phase (1 to 2 days), a wash-out phase for subjects currently on ADHD medications (1-14 days), pharmacokinetic (PK) assessment (2 days), followed by a dose-escalation phase (35 days) and a follow-up phone visit approximately four weeks after the last dose, for a maximum of 127 days. All ADHD medications were discontinued during the wash-out phase prior to the study. The wash-out period for stimulants was 2-3 days and that for atomoxetine or noradrenergic agonists was 10-12 days. No new ADHD medications were started during the study.
A dose-escalation phase of the trial ran over a 5-week period, after the initial wash-out period and the PK and initial safety assessments. […]

[3] = test system: dementia-related cognitive impairment; conditions: cited from earlier work

SMILES	bioavailability [1]	OCD symptoms ([2]; all eight subjects with OCD symptoms, during therapy)	dermatillomania symptoms (ear scratching, bleeding ulcer) ([2]; one subject with OCD and a history of ear scratching, during therapy)	conduct disorder symptoms, Vanderbilt items 27-40 score ([2]; week 5, one subject meeting conduct disorder criteria, decreased from 16 at week 1 (placebo week), 50-400 mg bid dose escalation)	safety and tolerability ([3]; Phase I-III trials, dementia-related cognitive impairment)	effects on psychiatric symptoms ([3]; Phase III data, cerebral infarct patients and adult dementia patients with cerebrovascular diseases)	efficacy in dementia ([3]; Phase III trials)
O=C1CC[C@H](C(=O)N2CCCCC2)N1 [Fasoracetam, fasoracetam]	79%-97%						
O=C1CC[C@H](C(=O)N2CCCCC2)N1 [NFC-1, fasoracetam monohydrate]		improved	reduced	12	generally safe and well tolerated	beneficial effects	did not show sufficient efficacy

— patent US11806340B2, “Methods of diagnosing and treating conduct disorder” (THE CHILDREN'S HOSPITAL OF PHILADELPHIA, priority 2015, dated 2023)
